Assay results: patent US10830746B2, “Quantitation of Tamoxifen and metabolites thereof by mass spectrometry” (QUEST DIAGNOSTICS INVESTMENTS INCORPORATED, priority 2014, dated 2020)

Experiment: Quantitation of tamoxifen and its metabolites in patient serum by LC-MS/MS
Experimental: In the following procedure, tamoxifen and its metabolites are extracted from serum. The serum is added to a filter plate, and then mixed with acetonitrile/IS, which then forms a precipitate. The mixture is then placed on a positive pressure manifold, and the organic fraction is passed through to a collection plate. The plate is lidded, and then placed on the Cohesive system for injection onto MS/MS. The MS is in APCI-positive mode. The quantitation is based upon unique parent-product transitions. Those analytes with similar transitions were separated chromatographically.
A 12-point calibration is used for each analyte. Initially, only one standard is made (Std-12), with a series of dilutions performed to generate the remaining standards. The standard (#12) is to be removed from the −70° C. freezer and thawed. While thawing, label twelve 12×75 mm tubes.
Add 3.0 mL of std-12 to tube 12. From this standard, you will follow the table below to create the standard curve. A standard curve is to be generated with each assay. Place the initial standard back in the −60 to −90° C. freezer.
A Thermo LC/MS/MS system containing the following modules was used for this assay:
The extraction is a protein precipitation, followed by filtration. Analysis and quantitation is then performed by LC/MS/MS.
Norendoxifen is extracted from serum using protein precipitation, followed by filtration. Analysis and quantitation is then performed by LC/MS/MS.

Reference Ranges (human, in vivo)	Compound	Reference Ranges (expected values in serum)
0.24 to 5.05 ng/mL	4-Hydroxy Tamoxifen	–
0.4 to 6.33 ng/mL	CC/C(=C(\c1ccccc1)c1ccc(OCCN(C)C)cc1)c1ccc(O)cc1 [4′-Hydroxy Tamoxifen]	–
2.59 to 373.96 ng/mL	CC/C(=C(\c1ccccc1)c1ccc(OCCNC)cc1)c1ccccc1 [N-Desmethyl Tamoxifen]	–
0.93 to 43.19 ng/mL	CC/C(=C(\c1ccc(O)cc1)c1ccc(OCCNC)cc1)c1ccccc1 [N-Desmethyl-4-Hydroxy Tamoxifen]	–
1.17 to 19.95 ng/mL	CCC(=C(c1ccccc1)c1ccc(OCCNC)cc1)c1ccc(O)cc1 [N-Desmethyl-4′-Hydroxy Tamoxifen]	–
–	Tamoxifen	12.54 to 233.07 ng/mL
